From US20240287080A1 (IDEAYA Biosciences Inc., priority 2021, published 2024) come the findings set out here.

pIC50: −log10 of the molar value.

T1 sequence (O75417 1-899): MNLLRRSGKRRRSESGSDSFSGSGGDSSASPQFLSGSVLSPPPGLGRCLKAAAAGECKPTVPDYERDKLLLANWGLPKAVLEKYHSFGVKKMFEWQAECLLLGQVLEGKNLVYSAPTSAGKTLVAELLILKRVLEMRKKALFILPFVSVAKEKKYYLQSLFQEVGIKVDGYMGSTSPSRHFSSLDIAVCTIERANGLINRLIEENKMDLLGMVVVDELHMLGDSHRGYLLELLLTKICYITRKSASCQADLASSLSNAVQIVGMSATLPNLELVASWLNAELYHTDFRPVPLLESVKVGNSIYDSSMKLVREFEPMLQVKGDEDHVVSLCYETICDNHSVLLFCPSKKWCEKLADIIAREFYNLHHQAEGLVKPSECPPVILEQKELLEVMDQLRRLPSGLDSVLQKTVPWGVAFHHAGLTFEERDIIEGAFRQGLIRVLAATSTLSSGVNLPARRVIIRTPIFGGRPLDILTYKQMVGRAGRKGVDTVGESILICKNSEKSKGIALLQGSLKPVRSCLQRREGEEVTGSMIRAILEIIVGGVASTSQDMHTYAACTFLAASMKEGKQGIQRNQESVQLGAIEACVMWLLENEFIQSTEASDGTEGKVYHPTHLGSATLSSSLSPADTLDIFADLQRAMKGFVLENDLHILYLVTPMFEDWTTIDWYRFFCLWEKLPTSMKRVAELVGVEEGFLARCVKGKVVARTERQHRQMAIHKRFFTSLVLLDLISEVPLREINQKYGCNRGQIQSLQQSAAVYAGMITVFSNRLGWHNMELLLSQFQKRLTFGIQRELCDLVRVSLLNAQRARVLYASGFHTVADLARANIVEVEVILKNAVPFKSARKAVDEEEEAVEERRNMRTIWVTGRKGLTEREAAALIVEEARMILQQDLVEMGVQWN

The first test addresses T1, Pol theta (1-899) (Homo sapiens, UniProt O75417).
T1 construct: Pol theta (1-899) (5 nM) in assay buffer
The experiment in a line: Pol theta ATPase activity, NADH oxidation-coupled enzymatic assay (ATPase NADH coupling: Standard Screening: hPolQ). The class given is biochemical. As to conditions: Pol theta (1-899) 5 nM, NADH oxidation-coupled ATPase assay; compounds of Table 3. Here is the method: The ability of the compounds of Formula (I) or Table 1 to inhibit ATPase activity of Pol theta (1-899) was determined using the assay described below. Pol Theta ATPase activity was determined by measuring the rate of ATP turn over in a NADH oxidation-coupled enzymatic assay. 10-point dilution series of compounds were used in a 384 well format for the inhibition assays. Pol theta (1-899) (5 nM) in assay buffer (20 mM Tris HCl (pH 7.80), 80 mM KCl, 10 mM MgCl2, 1 mM DTT, 0.01% BSA, 0.01% Tween, 5% glycerol) was transferred to the test wells (20 μL), except the low control wells (20 μL of assay buffer was added to the low control wells). The plate was then incubated at room temperature for 15 min. An equal volume (20 μL) of 100 μM ATP, 300 nM […] (single-stranded DNA (ssDNA) containing 50 thymine bases), 300 μM NADH, 6 mM PEP, 10 U/mL lactate dehydrogenase and 20 U/mL pyruvate kinase in assay buffer was added to all the test wells. The plate was then centrifuged at 1000 rpm for 1 min. The reaction was monitored for 60 min by measuring absorbance (λ=340 nm) in a Tecan Spark multimode plate reader every minute. The high control (DMSO with enzyme) with low absorbance intensity represents no inhibition of ATPase reaction while the low control (DMSO with buffer) with high absorbance intensity represents full inhibition of ATPase activity. Slope of the reaction progress curves were used to calculate the rate of ATP hydrolysis. The rates were used to determine the percent inhibition using a four-parameter inhibition model to generate IC50, Hill slope and max inhibition.
As for `COc1cc(C)c(-c2cc(C)ncc2C(=O)Nc2nnc(OC)s2)cn1` [Example 463, 6-methoxy-N-(5-methoxy-1,3,4-thiadiazol-2-yl)-4,6′-dimethyl-[3,4′-bipyridine]-3′-carboxamide], the negative-log IC50 (pIC50) (in general, the IC50 on a negative log10 scale, so that one unit is a factor of ten) is 5.00 to 6.00.
For `CC[S@+]([O-])c1cc(OC)c(-c2cc(C)ncc2C(=O)Nc2nnc(OC)s2)cc1Cl` (single isomer, unassigned) [Example 312], the negative logarithm of the IC50 (pIC50) was 6.00 to 6.30.
`COc1cnc(Cl)cc1-c1cc(C)ncc1C(=O)Nc1nnc(O[C@H]2CO[C@H]3OCC[C@H]32)s1` [Example 262, 2′-chloro-N-(5-(((3R,3aS,6aR)-hexahydrofuro[2,3-b]furan-3-yl)oxy)-1,3,4-thiadiazol-2-yl)-5′-methoxy-6-methyl-[4,4′-bipyridine]-3-carboxamide] gave a pIC50 of at least 6.70.
On to `COc1nnc(NC(=O)c2cnc(C)cc2-c2ccc(F)cc2C)s1` [Example 428, 4-(4-fluoro-2-methylphenyl)-N-(5-methoxy-1,3,4-thiadiazol-2-yl)-6-methylpyridine-3-carboxamide], for which the pIC50 was 6.00 to 6.30.
The same measure, in the same setting: the same measure for `COc1nnc(NC(=O)c2cnc(C)cc2-c2ccc3c(c2)CC(=O)N3)s1` [Example 347, N-(5-methoxy-1,3,4-thiadiazol-2-yl)-6-methyl-4-(2-oxo-2,3-dihydro-1H-indol-5-yl)pyridine-3-carboxamide]: 5.00 to 6.00; for `COc1nnc(NC(=O)c2cnc(C)cc2-c2cccc(C)c2F)s1` [Example 414, 4-(2-fluoro-3-methylphenyl)-N-(5-methoxy-1,3,4-thiadiazol-2-yl)-6-methylpyridine-3-carboxamide]: at least 6.70; for `COc1cnc(Br)cc1-c1cc(C)ncc1C(=O)Nc1nnc(O[C@H]2CC[C@@H](CO)CC2)s1` [Example 268, 2′-bromo-N-(5-(((1s,4s)-4-(hydroxymethyl)cyclohexyl)oxy)-1,3,4-thiadiazol-2-yl)-5′-methoxy-6-methyl-[4,4′-bipyridine]-3-carboxamide]: at least 6.70.
Consider `COc1nnc(NC(=O)c2cnc(C)cc2-c2cccc(S(N)(=O)=O)c2)s1` [Example 385, N-(5-methoxy-1,3,4-thiadiazol-2-yl)-6-methyl-4-(3-sulfamoylphenyl)pyridine-3-carboxamide], for which the pIC50 was 5.00 to 6.00.
In the case of `COc1nnc(NC(=O)c2cnc(C)cc2-c2cncc(C(N)=O)c2)s1` [Example 340, N3′-(5-methoxy-1,3,4-thiadiazol-2-yl)-6′-methyl-[3,4′-bipyridine]-3′,5-dicarboxamide], the pIC50 was 5.00 to 6.00.
Same read-out and setting: then `COc1nnc(NC(=O)c2cnc(C)cc2-c2ccc(F)cc2)s1` [Example 368, 4-(4-fluorophenyl)-N-(5-methoxy-1,3,4-thiadiazol-2-yl)-6-methylpyridine-3-carboxamide], with 5.00 to 6.00; and `COc1nnc(NC(=O)c2cnc(C)cc2-c2ccc(OC)c(C#N)c2)s1` [Example 345, 4-(3-cyano-4-methoxyphenyl)-N-(5-methoxy-1,3,4-thiadiazol-2-yl)-6-methylpyridine-3-carboxamide], with 5.00 to 6.00; and `COc1nnc(NC(=O)c2cnc(C)cc2-c2ccc3c(c2)CCO3)s1` [Example 380, 4-(2,3-dihydro-1-benzofuran-5-yl)-N-(5-methoxy-1,3,4-thiadiazol-2-yl)-6-methylpyridine-3-carboxamide], with 5.00 to 6.00.
The compound `COc1nnc(NC(=O)c2cnc(C)cc2-c2ccc3ccn(C)c3c2)s1` [Example 480, N-(5-methoxy-1,3,4-thiadiazol-2-yl)-6-methyl-4-(1-methyl-1H-indol-6-yl)pyridine-3-carboxamide] gave a pIC50 of 5.00 to 6.00.
`COc1cnc(C)cc1-c1cc(C)ncc1C(=O)Nc1nnc(O[C@H]2COC[C@@H]2OC(C)C)s1` [Example 246] gave a pIC50 of at least 6.70.
`CNC(=O)c1cccc(-c2cc(C)ncc2C(=O)Nc2nnc(OC)s2)c1` [Example 343, N-(5-methoxy-1,3,4-thiadiazol-2-yl)-6-methyl-4-[3-(methylcarbamoyl)phenyl]pyridine-3-carboxamide] showed a pIC50 of 5.00 to 6.00.
Regarding `COc1nnc(NC(=O)c2cnc(C)cc2-c2ccc3c(cnn3C)c2)s1` [Example 449, N-(5-methoxy-1,3,4-thiadiazol-2-yl)-6-methyl-4-(1-methyl-1H-indazol-5-yl)pyridine-3-carboxamide], the pIC50 is 6.00 to 6.30.
Compound `COc1cnc(C)cc1-c1cc(C)ncc1C(=O)Nc1nnc(O)s1` [Example 325, N-(5-hydroxy-1,3,4-thiadiazol-2-yl)-5′-methoxy-2′,6-dimethyl-[4,4′-bipyridine]-3-carboxamide] had a pIC50 of 5.00 to 6.00.

The same test, now with this note: Table 4; Pol theta (1-899) 5 nM, ATP, dT50 ssDNA.
Compound `COc1cnc(Cl)cc1-c1cc(C)ncc1C(=O)Nc1nnc(O[C@H]2CCO[C@@H]2C)s1` (single isomer, unassigned) [Example 77, 2′-chloro-5′-methoxy-6-methyl-N-(5-(((2r,3s)-2-methyltetrahydrofuran-3-yl)oxy)-1,3,4-thiadiazol-2-yl)-(4,4′-bipyridine)-3-carboxamide] gave a pIC50 of at least 6.70.
In turn, `COc1nnc(NC(=O)c2cnc(C)cc2-c2cc(Cl)ncc2OC)s1` [Example 5, 2′-chloro-5′-methoxy-N-(5-methoxy-1,3,4-thiadiazol-2-yl)-6-methyl-(4,4′-bipyridine)-3-carboxamide] had a pIC50 of at least 6.70.
In turn, `COc1nnc(NC(=O)c2cnc(C)cc2-c2c(OC)cnc(C)c2F)s1` [Example 61, 3′-fluoro-5′-methoxy-N-(5-methoxy-1,3,4-thiadiazol-2-yl)-2′,6-dimethyl-(4,4′-bipyridine)-3-carboxamide] gave a pIC50 of at least 6.70.
On the same count and under the same terms, the same measure for `COc1nnc(NC(=O)c2cnc(C)cc2-c2ccccc2OC(F)F)s1` [Example 36, 4-(2-(difluoromethoxy)phenyl)-N-(5-methoxy-1,3,4-thiadiazol-2-yl)-6-methylnicotinamide]: at least 6.70; for `COc1cnc(Cl)cc1-c1cc(C)ncc1C(=O)Nc1nnc(OCC(C)(F)F)s1` [Example 20, 6′-chloro-N-(5-(2,2-difluoropropoxy)-1,3,4-thiadiazol-2-yl)-3′-methoxy-6-methyl-4,4′-bipyridine-3-carboxamide]: at least 6.70.
Consider `COc1nnc(NC(=O)c2c[n+]([O-])c(C)cc2-c2cc(Cl)ncc2OC)s1` [Example 65, 2′-chloro-5′-methoxy-5-((5-methoxy-1,3,4-thiadiazol-2-yl)carbamoyl)-2-methyl-(4,4′-bipyridine) 1-oxide], for which the pIC50 was 6.00 to 6.30.
`COc1nnc(NC(=O)c2cnc(C)cc2-c2cc(C)ncc2Cl)s1` [Example 41, 5′-chloro-N-(5-methoxy-1,3,4-thiadiazol-2-yl)-2′,6-dimethyl-(4,4′-bipyridine)-3-carboxamide] had a pIC50 of at least 6.70.
Compound `COc1cnc(Cl)cc1-c1cc(C)ncc1C(=O)Nc1nnc(OC2(C)COC2)s1` [Example 24, 2′-chloro-5′-methoxy-6-methyl-N-(5-((3-methyloxetan-3-yl)oxy)-1,3,4-thiadiazol-2-yl)-(4,4′-bipyridine)-3-carboxamide] had a pIC50 of at least 6.70.

The same test, now with this note: Table 5; Pol theta (1-899) 5 nM, ATP, dT50 ssDNA.
`COc1nnc(NC(=O)c2cnc(C)cc2-c2c(OC)cnc(Cl)c2C)s1` [Example 79, 2′-chloro-5′-methoxy-N-(5-methoxy-1,3,4-thiadiazol-2-yl)-3′,6-dimethyl-(4,4′-bipyridine)-3-carboxamide] had a pIC50 of 6.30 to 6.70.
`Cc1cc(-c2cc(Cl)ncc2OC(F)F)c(C(=O)Nc2nnc(O[C@H]3CC[C@@](C)(O)CC3)s2)cn1` (single isomer, unassigned) [Example 220, 2′-chloro-5′-(difluoromethoxy)-N-(5-(((1s,4s)-4-hydroxy-4-methylcyclohexyl)oxy)-1,3,4-thiadiazol-2-yl)-6-methyl-(4,4′-bipyridine)-3-carboxamide] had a pIC50 of at least 6.70.
In turn, `COc1nnc(NC(=O)c2cnc(C)cc2-c2cccc(Cl)c2)s1` [Example 102, 4-(3-chlorophenyl)-N-(5-methoxy-1,3,4-thiadiazol-2-yl)-6-methylnicotinamide] gave a pIC50 of 6.30 to 6.70.
Compound `COc1cnc(Cl)cc1-c1cc(C)ncc1C(=O)Nc1nnc(O[C@H]2CC[C@H]([C@H](C)O)CC2)s1` (single isomer, unassigned) [Example 200] had a pIC50 of at least 6.70.
As for `COc1cnc(C)c(F)c1-c1cc(C)ncc1C(=O)Nc1nnc(O[C@H]2CC[C@H](O)CC2)s1` [Example 202, 3′-fluoro-N-(5-(((1r,4r)-4-hydroxycyclohexyl)oxy)-1,3,4-thiadiazol-2-yl)-5′-methoxy-2′,6-dimethyl-(4,4′-bipyridine)-3-carboxamide], the pIC50 is at least 6.70.
Compound `COc1cnc(Cl)cc1-c1cc(C)ncc1C(=O)Nc1nnc(O[C@H]2CC[C@H]([C@@H](C)O)CC2)s1` (single isomer, unassigned) [Example 199] showed a pIC50 of at least 6.70.
